Experimental data from patent publication US10421718B2, “EBNA1 inhibitors and their method of use” (priority 2013, dated 2019).

Biological target: T1, His-EBNA1 (DNA binding domain of EBNA1, amino acids 459-607) (Epstein-Barr virus, UniProt P03211)
T1 construct: made in house; host or cells: E. coli
Test: Inhibition of 5′-biotin-oPL4624 binding to His-EBNA1 using Alpha Screen technology
Details: Alpha Screen Activity (IC50, inhibition of 5′-biotin-oPL4624 binding to His-EBNA1), 15 nM His-EBNA1, 0.2 nM bt-oPL4624, 2 hr room temperature
Procedure: Inhibition of 5′-biotin-oPL4624 binding to His-EBNA1 using Alpha Screen technology: Assays were performed using the DNA binding domain of EBNA1 (amino acids 459-607), which was His-tagged (His-EBNA1) and the self-complementary biotinylated (bt) oligonucleotide with the sequence 5′-bt-[…]-ATGCTACCC-3′ (bt-oPL4624). The protein was expressed in E. coli and purified according to Barwell, et al. (Barwell J A, Bochkarev A, Pfuetzner R A, Tong H, Yang D S, Frappier L, Edwards A M. (1995) Overexpression, purification, and crystallization of the DNA binding and dimerization domains of the Epstein-Barr virus nuclear antigen 1. J Biol Chem. 270: 20556-9.). The bt-oPL4624 oligonucleotide was purchased from Integrated DNA Technologies, Inc (IDT). AlphaScreen donor, acceptor beads and white, opaque 384-well assay plates were purchased from PerkinElmer, Inc.
Assays contained 15 nM His-EBNA1, 0.2 nM bt-oPL4624, 5 μg/mL AlphaScreen streptavidin donor beads and nickel chelate acceptor beads, and a series of concentrations of test compound ranging from 3.2 nM to 100 μM in a total volume of 40 μL assay buffer (25 mM Tris, pH 7.2, 160 mM NaCl, 1 mM MgCl2). His-EBNA1 (30 nM) and bt-oPL4624 (0.4 nM) were preincubated with 10 μg/mL nickel chelate AlphaScreen acceptor bead, or 10 μg/mL streptavidin AlphaScreen donor bead, respectively, for 30 minutes at room temperature in assay buffer. Twenty microliters of His-EBNA1/acceptor bead mix and bt-oPL4624/donor bead mix were transferred to assay plates containing […] of 1:3 serial dilutions of test compounds previously prepared in DMSO at concentrations ranging from 0.32 μM to 10 mM. Nonspecific binding was determined with 5 μg/mL AlphaScreen acceptor bead in the absence of His-EBNA1. After 2 hr incubation at room temperature, the AlphaScreen signal was measured on the Envision plate reader (PerkinElmer, Inc.) at 680 nm excitation and 570 nm emission. Inhibition values at each concentration of test compound were determined by setting 100% equal to raw data values in the absence of EBNA1 and 0% equal to the raw data values in the presence of EBNA1. Nonlinear regression fits of the inhibition values to a one-site dose-response equation were performed using GraphPad Prism.

T1 sequence (P03211 459-607): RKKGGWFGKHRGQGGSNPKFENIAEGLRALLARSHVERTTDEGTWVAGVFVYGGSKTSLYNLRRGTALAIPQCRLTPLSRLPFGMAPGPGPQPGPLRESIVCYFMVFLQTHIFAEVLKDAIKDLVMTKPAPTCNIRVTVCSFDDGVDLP

O=C(O)c1cccc(C#Cc2ccc3[nH]cnc3c2)c1-n1cccc1 [Entry 41]
IC50: 1 to 10 µM

O=C(O)c1cccc(C#Cc2ccc3[nH]ccc3c2)c1-n1cccc1 [Entry 42, 3-[2-(1H-indol-5-yl)ethynyl]-2-(1H-pyrrol-1-yl)benzoic acid]
IC50: 1 to 10 µM

O=C(O)c1cccc(C#Cc2ccc3cc[nH]c3c2)c1-n1cccc1 [Entry 43, 3-[2-(1H-indol-6-yl)ethynyl]-2-(1H-pyrrol-1-yl)benzoic acid]
IC50: < 1 µM

Cc1ccc(C#Cc2cccc(C(=O)O)c2-n2cccc2)cc1 [Entry 44, 3-[2-(4-methylphenyl)ethynyl]-2-(1H-pyrrol-1-yl)benzoic acid]
IC50: < 1 µM

O=C(O)c1cccc(C#Cc2cc(F)cc(F)c2)c1-n1cccc1 [Entry 45, 3-[2-(3,5-difluorophenyl)ethynyl]-2-(1H-pyrrol-1-yl)benzoic acid]
IC50: 1 to 10 µM

O=C(O)c1cccc(C#Cc2cccc(OC(F)F)c2)c1-n1cccc1 [Entry 46, 3-{2-[3-(difluoromethoxy)phenyl]ethynyl}-2-(1H-pyrrol-1-yl)benzoic acid]
IC50: 1 to 10 µM

C#Cc1cccc(C(=O)O)c1-n1cccc1 [Entry 47, 3-ethynyl-2-(1H-pyrrol-1-yl)benzoic acid]
IC50: 10 to 100 µM

CC(C)(N)C#Cc1cccc(C(=O)O)c1-n1cccc1 [Entry 48, 3-(3-amino-3-methylbut-1-yn-1-yl)-2-(1H-pyrrol-1-yl)benzoic acid]
IC50: 100 to 1000 µM

CC(C)(C)C#Cc1cccc(C(=O)O)c1-n1cccc1 [Entry 49, 3-(3,3-dimethylbut-1-yn-1-yl)-2-(1H-pyrrol-1-yl)benzoic acid]
IC50: 1 to 10 µM

Cc1ccc(C)n1-c1c(C#Cc2ccccc2)cccc1C(=O)O [Entry 50, 2-(2,5-dimethyl-1H-pyrrol-1-yl)-3-(2-phenylethynyl)benzoic acid]
IC50: < 1 µM

O=C(O)c1cncc(C#Cc2ccc(F)cc2)c1-n1cccc1 [Entry 51]
IC50: 1 to 10 µM

O=C(O)c1cncc(C#Cc2ccccc2)c1-n1cccc1 [Entry 52, 5-(2-phenylethynyl)-4-(1H-pyrrol-1-yl)pyridine-3-carboxylic acid]
IC50: 10 to 100 µM

NC1(C#Cc2cccc(C(=O)O)c2-n2cccc2)CCCCC1 [Entry 53, 3-[2-(1-aminocyclohexyl)ethynyl]-2-(1H-pyrrol-1-yl)benzoic acid trifluoroacetic acid]
IC50: < 1 µM

O=C(O)c1cccc(C#CC2(O)CCCCC2)c1-n1cccc1 [Entry 54, 3-[2-(1-hydroxycyclohexyl)ethynyl]-2-(1H-pyrrol-1-yl)benzoic acid]
IC50: 1 to 10 µM

CCCCC(CC)C(O)C#Cc1cccc(C(=O)O)c1-n1cccc1 (centres unmarked) [Entry 55, 3-(4-ethyl-3-hydroxyoct-1-yn-1-yl)-2-(1H-pyrrol-1-yl)benzoic acid]
IC50: < 1 µM

O=C(O)c1cccc(C#Cc2cn3ccnc3cn2)c1-n1cccc1 [Entry 56, 3-(2-{imidazo[1,2-a]pyrazin-6-yl}ethynyl)-2-(1H-pyrrol-1-yl)benzoic acid]
IC50: < 1 µM

O=C(O)c1cccc(C#Cc2cccc(O)c2)c1-n1cccc1 [Entry 57, 3-[2-(3-hydroxyphenyl)ethynyl]-2-(1H-pyrrol-1-yl)benzoic acid]
IC50: < 1 µM

O=C(O)c1cc(Cl)cc(C#Cc2ccc(F)cc2)c1-n1cccc1 [Entry 58, 5-chloro-3-[2-(4-fluorophenyl)ethynyl]-2-(1H-pyrrol-1-yl)benzoic acid]
IC50: 10 to 100 µM

O=C(O)c1cc(Cl)cc(C#Cc2ccccc2)c1-n1cccc1 [Entry 59, 5-chloro-3-(2-phenylethynyl)-2-(1H-pyrrol-1-yl)benzoic acid]
IC50: 10 to 100 µM

O=C(O)c1cc(F)cc(C#Cc2ccc(F)cc2)c1-n1cccc1 [Entry 60, 5-fluoro-3-[2-(4-fluorophenyl)ethynyl]-2-(1H-pyrrol-1-yl)benzoic acid]
IC50: 100 to 1000 µM

O=C(O)c1cc(F)cc(C#Cc2ccccc2)c1-n1cccc1 [Entry 61, 5-fluoro-3-(2-phenylethynyl)-2-(1H-pyrrol-1-yl)benzoic acid]
IC50: 10 to 100 µM

O=C(O)c1cccc(C#CC2CC2)c1-n1cccc1 [Entry 62, 3-(2-cyclopropylethynyl)-2-(1H-pyrrol-1-yl)benzoic acid]
IC50: < 1 µM

CC(C)(O)C#Cc1cccc(C(=O)O)c1-n1cccc1 [Entry 63, 3-(3-hydroxy-3-methylbut-1-yn-1-yl)-2-(1H-pyrrol-1-yl)benzoic acid]
IC50: < 1 µM

CN(C)CC#Cc1cccc(C(=O)O)c1-n1cccc1 [Entry 64, 3-[3-(dimethylamino)prop-1-yn-1-yl]-2-(1H-pyrrol-1-yl)benzoic acid]
IC50: 100 to 1000 µM

O=C(O)c1cccc(C#CCCc2ccccc2)c1-n1cccc1 [Entry 65, 3-(4-phenylbut-1-yn-1-yl)-2-(1H-pyrrol-1-yl)benzoic acid]
IC50: < 1 µM

O=C(O)c1cccc(C#CCCCO)c1-n1cccc1 [Entry 66, 3-(5-hydroxypent-1-yn-1-yl)-2-(1H-pyrrol-1-yl)benzoic acid]
IC50: < 1 µM

COc1ccc(C#Cc2cccc(C(=O)O)c2-n2cccc2)cc1 [Entry 67, 3-[2-(4-methoxyphenyl)ethynyl]-2-(1H-pyrrol-1-yl)benzoic acid]
IC50: 1 to 10 µM

O=C(O)c1cccc(C#Cc2ccncc2)c1-n1cccc1 [Entry 68, 3-[2-(pyridin-4-yl)ethynyl]-2-(1H-pyrrol-1-yl)benzoic acid]
IC50: < 1 µM

O=C(O)c1cccc(C#Cc2cccnc2)c1-n1cccc1 [Entry 69, 3-[2-(pyridin-3-yl)ethynyl]-2-(1H-pyrrol-1-yl)benzoic acid]
IC50: 10 to 100 µM

COc1cccc(C#Cc2cccc(C(=O)O)c2-n2cccc2)c1 [Entry 70, 3-[2-(3-methoxyphenyl)ethynyl]-2-(1H-pyrrol-1-yl)benzoic acid]
IC50: 1 to 10 µM

O=C(O)c1cccc(C#Cc2ccc(F)cc2)c1-n1cccc1 [Entry 71, 3-[2-(4-fluorophenyl)ethynyl]-2-(1H-pyrrol-1-yl)benzoic acid]
IC50: 1 to 10 µM

O=C(O)c1cccc(C#Cc2ccccc2)c1-n1cccc1 [Entry 72, 3-(2-phenylethynyl)-2-(1H-pyrrol-1-yl)benzoic acid]
IC50: < 1 µM

CN(CC#Cc1cccc(C(=O)O)c1-n1cccc1)Cc1ccccc1 [Entry 73, 3-{3-[benzyl(methyl)amino]prop-1-yn-1-yl}-2-(1H-pyrrol-1-yl)benzoic acid]
IC50: < 1 µM

O=C(O)c1cccc(C#CCn2ccnc2)c1-n1cccc1 [Entry 74, 3-[3-(1H-imidazol-1-yl)prop-1-yn-1-yl]-2-(1H-pyrrol-1-yl)benzoic acid]
IC50: < 1 µM

O=C(O)c1cccc(C#Cc2cscn2)c1 [Entry 75, 3-[2-(1,3-thiazol-4-yl)ethynyl]benzoic acid]
IC50: 10 to 100 µM

O=C(O)c1cccc(C#Cc2c[nH]c3ncccc23)c1 [Entry 76, 3-(2-{1H-pyrrolo[2,3-b]pyridin-3-yl}ethynyl)benzoic acid]
IC50: 10 to 100 µM

O=C(O)c1cccc(C#Cc2ccc3[nH]ccc3c2)c1 [Entry 77, 3-[2-(1H-indol-5-yl)ethynyl]benzoic acid]
IC50: < 1 µM

Nc1c(C#Cc2c[nH]c3ncccc23)cccc1C(=O)O [Entry 78]
IC50: < 1 µM

Nc1c(C#Cc2cccc3[nH]ccc23)cccc1C(=O)O [Entry 79, 2-amino-3-[2-(1H-indol-4-yl)ethynyl]benzoic acid]
IC50: < 1 µM

Nc1c(C#Cc2ccc3cc[nH]c3c2)cccc1C(=O)O [Entry 80, 2-amino-3-[2-(1H-indol-6-yl)ethynyl]benzoic acid]
IC50: < 1 µM

Nc1c(C#Cc2ccc3[nH]ccc3c2)cccc1C(=O)O [Entry 81]
IC50: < 1 µM

Nc1c(C#Cc2cccc(CO)c2)cccc1C(=O)O [Entry 82, 2-amino-3-{2-[3-(hydroxymethyl)phenyl]ethynyl}benzoic acid]
IC50: 1 to 10 µM

Nc1c(C#Cc2cccc(O)c2)cccc1C(=O)O [Entry 83]
IC50: 1 to 10 µM

Nc1c(C#Cc2ccccc2)cccc1C(=O)O [Entry 84]
IC50: 10 to 100 µM

O=C(O)c1cccc(C#Cc2ccccc2)c1F [Entry 85, 2-fluoro-3-(2-phenylethynyl)benzoic acid]
IC50: 1 to 10 µM

O=C(O)c1cccc(C#Cc2c[nH]c3ncccc23)c1F [Entry 86, 2-fluoro-3-(2-{1H-pyrrolo[2,3-b]pyridin-3-yl}ethynyl)benzoic acid]
IC50: 10 to 100 µM

O=C(O)c1cccc(C#Cc2cnc3cnccn23)c1F [Entry 87, 2-fluoro-3-(2-{imidazo[1,2-a]pyrazin-3-yl}ethynyl)benzoic acid]
IC50: < 1 µM
